The assay has as its system Plasmodium falciparum. Put plainly: Antimalarial activity against Plasmodium falciparum. The format is functional.

Turning to `COC1(c2ccc(S(C)(=O)=O)cc2)C=CC(C2CCCCC2)(C2CCCCC2)OC1` (centres undefined), the logIC50 amounted to 1.748.

As to `COC1(c2ccc(SC)cc2)C=CC(C2CCCCC2)(C2CCCCC2)OC1` (centres undefined), the logIC50 was 2.204.

Regarding `CCc1ccc(C2(OC)C=CC(C3CCCCCC3)(C3CCCCCC3)OC2)cc1` (centres undefined), the logIC50 is reported as 2.255.

Take `COC1(c2ccc(F)cc2)C=CC(C2CCCCCC2)(C2CCCCCC2)OC1` (centres undefined): the logIC50 stood at 1.929.

Consider `COc1ccc(C2(OC)C=CC(C3CCCCCC3)(C3CCCCCC3)OC2)cc1` (centres undefined), for which the logIC50 worked out at 2.322.

`COC1(c2ccc(F)cc2)C=CC(C2CCCCC2)(C2CCCCC2)OC1` (centres undefined): the logIC50 worked out at 2.301.

The compound `COC1(c2ccc(C(F)(F)F)cc2)C=CC(C2CCCCC2)(C2CCCCC2)OC1` (centres undefined) had a logIC50 of 2.146.

In turn, `COC1(c2ccc(OC(F)(F)F)cc2)C=CC(C2CCCCCC2)(C2CCCCCC2)OC1` (centres undefined) displayed a logIC50 of 1.785.

On to `COC1(c2ccc([N+](=O)[O-])cc2)C=CC(C2CCCCC2)(C2CCCCC2)OC1` (centres undefined), for which the logIC50 is 1.663.

In the case of `COC1(c2ccc(Cl)cc2)C=CC(C2CCCCC2)(C2CCCCC2)OC1` (centres undefined), the logIC50 was 2.

Compound `COC1(c2ccccc2)C=CC(C2CCCCC2)(C2CCCCC2)OC1` (centres undefined) returned a logIC50 of 2.447.

Take `COc1ccc(C2(OC)C=CC(C3CCCCC3)(C3CCCCC3)OC2)cc1` (centres undefined): the logIC50 is listed as 2.255.

Compound `COC1(c2ccc(S(C)(=O)=O)cc2)C=CC(C2CCCCCC2)(C2CCCCCC2)OC1` (centres undefined) had a logIC50 of 1.491.

`COC1(c2ccc(SC)cc2)C=CC(C2CCCCCC2)(C2CCCCCC2)OC1` (centres undefined) came in with a logIC50 of 1.892.

Regarding `COc1cc(C2(OC)C=CC(C3CCCCCC3)(C3CCCCCC3)OC2)cc(OC)c1OC` (centres undefined), the logIC50 is 2.079.

The compound `COC1(c2ccc(Cl)cc2)C=CC(C2CCCCCC2)(C2CCCCCC2)OC1` (centres undefined) returned a logIC50 of 1.763.

Compound `COC1(c2ccccc2)C=CC(C2CCCCCC2)(C2CCCCCC2)OC1` (centres undefined) displayed a logIC50 of 2.342.

Take `COC1(c2ccccc2)C=CC(C2CCCC2)(C2CCCC2)OC1` (centres undefined): the logIC50 came to 2.279.

Turning to `COC1(c2ccccc2)C=CC(C)(C)OC1` (centres undefined), the logIC50 was determined as 3.041.

These data come from ChEMBL document CHEMBL3045536, “Prediction of antimalarial activity of some cyclic peroxy ketals using physico-chemical and topological indices” (2012).
